Experimental data published in patent publication EP1377579B1 (Aventis Pharmaceuticals Inc., priority 2000, dated 2002).
pIC50: −log10 of the molar value. Where a name gives a salt, the structure may show the parent alone. Read-outs that look alike come from different tables or passages of the source.

How the values were obtained:
PC-3 = experiment: In vitro proliferation assay (MTT), PC-3; format: cell-based, human; conditions: value (SD, n) where given, read-out: PC-3 Prostate (IC50 µM)
Outline: (§1)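 Cells were seeded at 1000 to 2500 cells/well, allowed to attach overnight, then exposed to test compounds for 3 days. Viable cells were estimated by MTT dye reduction, with dye solubilized in DMSO and absorbance read at 570 nm; IC50s derived from raw data.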

cdk4/cyclin D1 = cdk4/cyclin D1 (Homo sapiens, UniProt P11802); experiment: Cyclin-dependent kinase assay, cdk4/cyclin D1; format: biochemical; conditions: cyclin D1/cdk4; GST-pRb substrate, 10 µM ATP
Sequence of cdk4/cyclin D1 (P11802 whole entry): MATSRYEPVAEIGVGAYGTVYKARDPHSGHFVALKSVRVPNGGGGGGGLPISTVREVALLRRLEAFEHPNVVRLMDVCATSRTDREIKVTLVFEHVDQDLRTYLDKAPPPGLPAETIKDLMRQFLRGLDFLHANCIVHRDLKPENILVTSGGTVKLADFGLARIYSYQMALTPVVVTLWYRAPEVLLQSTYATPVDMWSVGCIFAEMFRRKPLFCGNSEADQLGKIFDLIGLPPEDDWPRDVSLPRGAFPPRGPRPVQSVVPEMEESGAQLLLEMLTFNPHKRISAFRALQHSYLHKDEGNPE
Sequence of cdk4/cyclin D1 (P24385 whole entry partner): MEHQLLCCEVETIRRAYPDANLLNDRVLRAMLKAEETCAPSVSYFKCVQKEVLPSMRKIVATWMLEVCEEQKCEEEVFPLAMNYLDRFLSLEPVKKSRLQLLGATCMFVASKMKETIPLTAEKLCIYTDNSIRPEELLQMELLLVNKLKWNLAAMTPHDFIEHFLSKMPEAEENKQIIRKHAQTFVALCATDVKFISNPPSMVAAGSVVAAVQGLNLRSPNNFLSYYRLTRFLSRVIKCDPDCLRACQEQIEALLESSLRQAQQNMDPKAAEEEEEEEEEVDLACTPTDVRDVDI

cdk1/cyclin B = cdk1/cyclin B (Homo sapiens, UniProt P06493); experiment: Cyclin-dependent kinase assay, cdk1/cyclin B; conditions: CDK1 IC50, nM, Histone H1, 10 µM ATP
Sequence of cdk1/cyclin B (P06493 whole entry): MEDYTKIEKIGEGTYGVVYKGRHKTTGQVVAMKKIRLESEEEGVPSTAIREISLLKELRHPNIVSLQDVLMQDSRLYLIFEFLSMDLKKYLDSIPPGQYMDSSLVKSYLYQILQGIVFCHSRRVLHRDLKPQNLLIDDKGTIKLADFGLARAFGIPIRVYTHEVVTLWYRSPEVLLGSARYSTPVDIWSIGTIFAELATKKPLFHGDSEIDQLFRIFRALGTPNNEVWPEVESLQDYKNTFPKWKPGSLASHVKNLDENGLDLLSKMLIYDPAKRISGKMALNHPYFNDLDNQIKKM
Sequence of cdk1/cyclin B (P14635 whole entry partner): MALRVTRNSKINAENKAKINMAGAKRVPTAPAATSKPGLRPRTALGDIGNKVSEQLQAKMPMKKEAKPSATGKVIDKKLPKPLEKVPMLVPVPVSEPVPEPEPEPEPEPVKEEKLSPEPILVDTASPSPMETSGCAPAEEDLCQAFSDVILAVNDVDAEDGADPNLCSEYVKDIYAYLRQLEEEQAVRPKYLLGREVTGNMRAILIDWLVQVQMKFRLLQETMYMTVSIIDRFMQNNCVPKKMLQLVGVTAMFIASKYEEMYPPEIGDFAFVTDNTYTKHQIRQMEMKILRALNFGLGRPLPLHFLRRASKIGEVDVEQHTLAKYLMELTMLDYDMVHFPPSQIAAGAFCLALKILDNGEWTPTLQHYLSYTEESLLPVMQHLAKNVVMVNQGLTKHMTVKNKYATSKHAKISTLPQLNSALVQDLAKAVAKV

cdk2/cyclin E = cdk2/cyclin E (Homo sapiens, UniProt P24941); experiment: Cyclin-dependent kinase assay, cdk2/cyclin E; conditions: CDK2 IC50, nM, GST-pRb substrate, 10 µM ATP
MDA-MB-435 = experiment: In vitro proliferation assay (MTT), MDA-MB-435; format: cell-based, human; conditions: value (SD, n) where given, read-out: MB-435 Breast (IC50 µM)
Outline: as §1

[1] = Homo sapiens, MDA-MB-435, MTT assay

| Compound | IC50 (PC-3; Homo sapiens, PC-3, MTT assay) [µM] | pIC50 (cdk4/cyclin D1) | IC50 (cdk1/cyclin B) [nM] | IC50 (cdk2/cyclin E) [nM] | IC50 (MDA-MB-435; [1]) [µM] | IC50 (PC-3; MTT assay) [µM] | IC50 (MDA-MB-435; MTT assay) [µM] |
| --- | --- | --- | --- | --- | --- | --- | --- |
| N[C@H]1CC[C@H](Nc2nc(NC3CCN(C(=O)c4cccnc4)CC3)c3ncn(C4CCCC4)c3n2)CC1 [compound 67, trans-1-{4-[2-(4-Amino-cyclohexylamino)-9-cyclopentyl-9H-purin-6-ylamino]-piperidin-1-yl}-1-pyridin-3-yl-methanone] | 38 | 5.50 | 824 | 441 | 50 | – | – |
| N[C@H]1CC[C@H](Nc2nc(NC3CCN(C(=O)c4ccncc4)CC3)c3ncn(C4CCCC4)c3n2)CC1 [compound 68, trans-1-{4-[2-(4-Amino-cyclohexylamino)-9-cyclopentyl-9H-purin-6-ylamino]-piperidin-1-yl}-1-pyridin-4-yl-methanone] | 16 | 5.84 | 136 | 84 | 21 | – | – |
| N[C@H]1CC[C@H](Nc2nc(NC3CCN(C(=O)c4cc(C(F)(F)F)ccc4F)CC3)c3ncn(C4CCCC4)c3n2)CC1 [compound 69, trans-1-{4-[2-(4-Amino-cyclohexylamino)-9-cyclopentyl-9H-purin-6-ylamino]-piperidin-1-yl}-1-(2-fluoro-5-trifluoromethyl-phenyl)-methanone] | 0.35 | 6.07 | 48 | 84 | 0.48 | – | – |
| Cc1ccccc1C(=O)N1CCC(Nc2nc(N[C@H]3CC[C@H](N)CC3)nc3c2ncn3C2CCCC2)CC1 [compound 70, trans-1-{4-[2-(4-Amino-cyclohexylamino)-9-cyclopentyl-9H-purin-6-ylamino]-piperidin-1-yl}-1-(2-methyl-phenyl)-methanone] | 4.4 | 5.35 | 277 | 430 | 4.6 | – | – |
| N[C@H]1CC[C@H](Nc2nc(NC3CCN(C(=O)c4cccc(Br)c4)CC3)c3ncn(C4CCCC4)c3n2)CC1 [compound 71, trans-1-{4-[2-(4-Amino-cyclohexylamino)-9-cyclopentyl-9H-purin-6-ylamino]-piperidin-1-yl}-1-(3-bromophenyl)-methanone] | 0.61 | 6.16 | 53 | 91 | 0.64 | – | – |
| N[C@H]1CC[C@H](Nc2nc(NC3CCN(C(=O)c4cccc(Cl)c4)CC3)c3ncn(C4CCCC4)c3n2)CC1 [compound 72, trans-1-{4-[2-(4-Amino-cyclohexylamino)-9-cyclopentyl-9H-purin-6-ylamino]-piperidin-1-yl}-1-(3-chloro-phenyl)-methanone] | – | 6.06 | 51 | 89 | – | 0.03 | 0.03 |
| N[C@H]1CC[C@H](Nc2nc(NC3CCN(C(=O)c4ccc(Br)cc4)CC3)c3ncn(C4CCCC4)c3n2)CC1 [compound 74, trans-1-{4-[2-(4-Amino-cyclohexylamino)-9-cyclopentyl-9H-purin-6-ylamino]-piperidin-1-yl}-1-(4-bromo-phenyl)-methanone] | 1.25 | 6.25 | 62 | 239 | 1.07 | – | – |
| N[C@H]1CC[C@H](Nc2nc(NC3CCN(C(=O)c4ccc(Cl)cc4)CC3)c3ncn(C4CCCC4)c3n2)CC1 [compound 75, trans-1-{4-[2-(4-Amino-cyclohexylamino)-9-cyclopentyl-9H-purin-6-ylamino]-piperidin-1-yl}-1-(4-chloro-phenyl)-methanone] | 1.7 | 6.10 | 71 | 58 | 1.38 | – | – |
| N[C@H]1CC[C@H](Nc2nc(NC3CCN(C(=O)c4ccc(I)cc4)CC3)c3ncn(C4CCCC4)c3n2)CC1 [compound 76, trans-1-{4-[2-(4-Amino-cyclohexylamino)-9-cyclopentyl-9H-purin-6-ylamino]-piperidin-1-yl}-1-(4-iodo-phenyl)-methanone] | 1.04 | 6.10 | 57 | 179 | 1.47 | – | – |
| Cc1ccc(C(=O)N2CCC(Nc3nc(N[C@H]4CC[C@H](N)CC4)nc4c3ncn4C3CCCC3)CC2)cc1 [compound 77, trans-1-{4-[2-(4-Amino-cyclohexylamino)-9-cyclopentyl-9H-purin-6-ylamino]-piperidin-1-yl}-1-(4-methyl-phenyl)-methanone] | 1.19 | 6.22 | 100 | 71 | 1.03 | – | – |
| N[C@H]1CC[C@H](Nc2nc(NC3CCN(C(=O)c4ccc(Cl)cc4Cl)CC3)c3ncn(C4CCCC4)c3n2)CC1 [compound 78, trans-1-{4-[2-(4-Amino-cyclohexylamino)-9-cyclopentyl-9H-purin-6-ylamino]-piperidin-1-yl}-1-(2,4-dichloro-phenyl)-methanone] | 1.53 | 6.28 | 101 | 155 | 1.56 | – | – |
| CC(C)n1cnc2c(NC3CCN(C(=O)COc4ccccc4)CC3)nc(N[C@H]3CC[C@H](N)CC3)nc21 [compound 80, trans-1-{4-[2-(4-Amino-cyclohexylamino)-9-isopropyl-9H-purin-6-ylamino]-piperidin-1-yl}-2-phenoxy-ethanone dihydrochloride] | > 50 | 5.09 | 244 | 39 | > 50 | – | – |
| CCOC(=O)N1CCC(Nc2nc(N[C@H]3CC[C@H](N)CC3)nc3c2ncn3C(C)C)CC1 [compound 104, trans-4-[2-(4-Amino-cyclohexylamino)-9-isopropyl-9H-purin-6-ylamino]-piperidine-1-carboxylic acid ethyl ester dihydrochloride] | 1.21 | 5.10 | 750 | 731 | 2.27 | – | – |

Now those with a higher pIC50 (cdk4/cyclin D1), led by results:

| IC50 (PC-3; Homo sapiens, PC-3, MTT assay) [µM] | pIC50 (cdk4/cyclin D1) | IC50 (cdk1/cyclin B) [nM] | IC50 (cdk2/cyclin E) [nM] | IC50 (MDA-MB-435; [1]) [µM] | IC50 (PC-3; MTT assay) [µM] | IC50 (MDA-MB-435; MTT assay) [µM] | Compound |
| --- | --- | --- | --- | --- | --- | --- | --- |
| 1.35 | 6.39 | 100 | 73 | 1.31 | – | – | Cc1cccc(C(=O)N2CCC(Nc3nc(N[C@H]4CC[C@H](N)CC4)nc4c3ncn4C3CCCC3)CC2)c1 [compound 73, trans-1-{4-[2-(4-Amino-cyclohexylamino)-9-cyclopentyl-9H-purin-6-ylamino]-piperidin-1-yl}-1-(3-methyl-phenyl)-methanone] |
| 0.27 | 6.32 | 44 | 73 | 0.25 | – | – | N[C@H]1CC[C@H](Nc2nc(NC3CCN(C(=O)c4cc(Cl)cc(Cl)c4)CC3)c3ncn(C4CCCC4)c3n2)CC1 [compound 79, trans-1-{4-[2-(4-Amino-cyclohexylamino)-9-cyclopentyl-9H-purin-6-ylamino]-piperidin-1-yl}-1-(3,5-dichloro-phenyl)-methanone] |
| 5.89 | 7.41 | 18 | 7 | 6.54 | – | – | CC(=O)Nc1nc(C)c(S(=O)(=O)N2CCC(Nc3nc(N[C@H]4CC[C@H](N)CC4)nc4c3ncn4C3CCCC3)CC2)s1 [compound 113, trans-N-(5-{4-[2-(4-Amino-cyclohexylamino)-9-cyclopentyl-9H-purin-6-ylamino]-piperidine-1-sulfonyl}-4-methyl-thiazol-2-yl)-acetamide dihydrochloride] |
| 0.48 | 7.10 | 5 | 15 | 0.33 | – | – | N[C@H]1CC[C@H](Nc2nc(NC3CCN(S(=O)(=O)c4ccc(Br)cc4)CC3)c3ncn(C4CCCC4)c3n2)CC1 [compound 114, trans-N^2-(4-Amino-cyclohexyl)-9-cyclopentyl-N^6-[1-(4-bromo-benzenesulfonyl)-piperidin-4-yl]-9H-purine-2,6-diamine dihydrochloride] |
| 5.1 | 7.85 | 5 | 5 | 4.24 | – | – | CC(=O)Nc1ccc(S(=O)(=O)N2CCC(Nc3nc(N[C@H]4CC[C@H](N)CC4)nc4c3ncn4C3CCCC3)CC2)cc1 [compound 115, trans-N-(4-{4-[2-(4-Amino-cyclohexylamino)-9-cyclopentyl-9H-purin-6-ylamino]-piperidine-1-sulfonyl}-phenyl)-acetamide dihydrochloride] |
| 1.15 | 6.42 | 18 | 32 | 0.64 | – | – | N[C@H]1CC[C@H](Nc2nc(NC3CCN(S(=O)(=O)c4ccc5ccccc5c4)CC3)c3ncn(C4CCCC4)c3n2)CC1 [compound 116, trans-N^2-(4-Amino-cyclohexyl)-9-cyclopentyl-N^6-[1-(naphthalene-2-sulfonyl)-piperidin-4-yl]-9H-purine-2,6-diamine dihydrochloride] |
| 0.38 | 7.42 | 22 | 38 | 0.28 | – | – | N[C@H]1CC[C@H](Nc2nc(NC3CCN(S(=O)(=O)/C=C/c4ccccc4)CC3)c3ncn(C4CCCC4)c3n2)CC1 [compound 118, trans-N^2-(4-Amino-cyclohexyl)-9-cyclopentyl-N^6-[1-((E)-2-phenyl-ethenesulfonyl)-piperidin-4-yl]-9H-purine-2,6-diamine dihydrochloride] |
| 0.52 | 7.19 | 25 | 31 | 0.4 | – | – | N[C@H]1CC[C@H](Nc2nc(NC3CCN(S(=O)(=O)Cc4ccccc4)CC3)c3ncn(C4CCCC4)c3n2)CC1 [compound 119, trans-N^2-(4-Amino-cyclohexyl)-9-cyclopentyl-N^6-(1-phenylmethanesulfonyl-piperidin-4-yl)-9H-purine-2,6-diamine dihydrochloride] |
